In patent US20250361209A1, “CRYSTAL FORMS OF N-(3-FLUOROPHENYL)-6-(6,7-DIMETHOXYQUINOLIN-4-OXY)-3,4-DIHYDROQUINOLINE-1(2H)-CARBOXAMIDE METHANESULFONATE AND PREPARATION METHOD THEREOF” (Shanghai Yi Feng Biotechnology Co., Ltd., priority 2023, published 2025):
Read-outs that look alike come from different tables or passages of the source.

Legend:
[1] = Test of influencing factors of crystalline forms A, B and C (total impurity); assay type: physicochemical; conditions: methanesulfonate
Description: Example 3 Test of Influencing Factors of Crystalline Forms A, B and C

[2] = Comparison of oral absorption of K-13 (free base) and its methanesulfonate, plasma concentration-time and PK; assay type: in vivo, BALB/c mice; conditions: 10 mg · kg^−1 PO; for concentration at 8 h / concentration at 24 h / concentration at 0 h: 10 mg · kg^−1, BALB/c mice
Description: Comparison of oral absorption of K-13 (free base) and its methanesulfonate (N-(3-fluorophenyl)-6-(6. 7-dimethoxyquinolin-4-oxy)-3.4-dihydroquinoline-1(2H)-carboxamide methanesulfonate)

[3] = High temperature (60° C.), 0 day
[4] = High temperature (60° C.), 5 days
[5] = High temperature (60° C.), 10 days
[6] = Illumination (5000 + 500 lux), 0 day
[7] = Illumination (5000 + 500 lux), 5 days
[8] = Illumination (5000 + 500 lux), 10 days
[9] = Illumination (5000 + 500 lux), 30 days
[10] = BALB/c mice, analyte K-13-1, methanesulfonate

`COc1cc2nccc(Oc3ccc4c(c3)CCCN4C(=O)Nc3cccc(F)c3)c2cc1OC` [Crystalline form A, N-(3-fluorophenyl)-6-(6,7-dimethoxyquinolin-4-oxy)-3,4-dihydroquinoline-1(2H)-carboxamide methanesulfonate] showed a Total impurity % ([1]; High humidity (RH75%), 0 day) of 0.91%, a Total impurity % ([1]; High humidity (RH75%), 5 days) of 0.92% and a Total impurity % ([1]; High humidity (RH75%), 10 days) of 0.99%. The Total impurity % ([1]; High humidity (RH75%), 30 days) was 1.25%, the Total impurity % [1, 3] was 0.91% and the Total impurity % [1, 4] was 4.50%. It also gave a Total impurity % [1, 5] of 6.96%, a Total impurity % [1, 6] of 0.91% and a Total impurity % [1, 7] of 1.89%. It also gave a Total impurity % [1, 8] of 3.70% and a Total impurity % [1, 9] of 4.21%.

Work on `COc1cc2nccc(Oc3ccc4c(c3)CCCN4C(=O)Nc3cccc(F)c3)c2cc1OC` [Crystalline form B, N-(3-fluorophenyl)-6-(6,7-dimethoxyquinolin-4-oxy)-3,4-dihydroquinoline-1(2H)-carboxamide methanesulfonate] yielded a Total impurity % ([1]; High humidity (RH75%), 0 day) of 0.86%, a Total impurity % ([1]; High humidity (RH75%), 5 days) of 1.03% and a Total impurity % ([1]; High humidity (RH75%), 10 days) of 1.09%. It also gave a Total impurity % ([1]; High humidity (RH75%), 30 days) of 1.12%, a Total impurity % [1, 3] of 0.86% and a Total impurity % [1, 4] of 1.00%. The Total impurity % [1, 5] was 0.98%, the Total impurity % [1, 6] was 0.86% and the Total impurity % [1, 7] was 0.94%. For the same compound, the Total impurity % [1, 8] was 1.12% and the Total impurity % [1, 9] was 1.33%.

For `COc1cc2nccc(Oc3ccc4c(c3)CCCN4C(=O)Nc3cccc(F)c3)c2cc1OC` [K-13-1, N-(3-fluorophenyl)-6-(6,7-dimethoxyquinolin-4-oxy)-3,4-dihydroquinoline-1(2H)-carboxamide], the “plasma Concentration of K-13-1, PO-1” value ([2]; BALB/c mice, 0.083 h, animal PO-1) was 29.6 ng/mL, the “plasma Concentration of K-13-1, PO-2” value ([2]; BALB/c mice, 0.083 h, animal PO-2) was 46.6 ng/mL and the “plasma Concentration of K-13-1, Mean” value ([2]; BALB/c mice, 0.083 h, mean) was 38.1 ng/mL. For the same compound, the “plasma Concentration of K-13-1, PO-1” value ([2]; BALB/c mice, 0.25 h, animal PO-1) was 186 ng/mL, the “plasma Concentration of K-13-1, PO-2” value ([2]; BALB/c mice, 0.25 h, animal PO-2) was 215 ng/mL and the “plasma Concentration of K-13-1, Mean” value ([2]; BALB/c mice, 0.25 h, mean) was 201 ng/mL. The “plasma Concentration of K-13-1, PO-1” value ([2]; BALB/c mice, 0.5 h, animal PO-1) was 480 ng/mL, the “plasma Concentration of K-13-1, PO-2” value ([2]; BALB/c mice, 0.5 h, animal PO-2) was 865 ng/mL and the “plasma Concentration of K-13-1, Mean” value ([2]; BALB/c mice, 0.5 h, mean) was 673 ng/mL. The “plasma Concentration of K-13-1, PO-1” value ([2]; BALB/c mice, 1 h, animal PO-1) was 551 ng/mL, the “plasma Concentration of K-13-1, PO-2” value ([2]; BALB/c mice, 1 h, animal PO-2) was 420 ng/mL and the “plasma Concentration of K-13-1, Mean” value ([2]; BALB/c mice, 1 h, mean) was 485 ng/mL. For the same compound, the “plasma Concentration of K-13-1, PO-1” value ([2]; BALB/c mice, 2 h, animal PO-1) was 136 ng/mL, the “plasma Concentration of K-13-1, PO-2” value ([2]; BALB/c mice, 2 h, animal PO-2) was 485 ng/mL and the “plasma Concentration of K-13-1, Mean” value ([2]; BALB/c mice, 2 h, mean) was 311 ng/mL. The “plasma Concentration of K-13-1, PO-1” value ([2]; BALB/c mice, 4 h, animal PO-1) was 220 ng/mL, the “plasma Concentration of K-13-1, PO-2” value ([2]; BALB/c mice, 4 h, animal PO-2) was 395 ng/mL and the “plasma Concentration of K-13-1, Mean” value ([2]; BALB/c mice, 4 h, mean) was 308 ng/mL. The “plasma Concentration of K-13-1, PO-1” value ([2]; BALB/c mice, 24 h, animal PO-1) was “BLOQ”, the AUC0-inf ([2]; BALB/c mice, analyte K-13-1) was 2894 ng·h/mL and the AUC0-t ([2]; BALB/c mice, analyte K-13-1) was 2870 ng·h/mL. For the same compound, the Cmax ([2]; BALB/c mice, analyte K-13-1) was 673 ng/mL, the Kel ([2]; BALB/c mice, analyte K-13-1) was 0.200 h⁻¹ and the “F (oral bioavailability)” value ([2]; BALB/c mice, analyte K-13-1, listed as free base) was 20%. The concentration at 8 h ([2]; BALB/c, mouse, plasma, po, 8 h, animal PO-1, read-out: plasma Concentration of K-13-1, PO-1) was 97.2 ng/mL, the concentration at 8 h ([2]; BALB/c, mouse, plasma, po, 8 h, animal PO-2, read-out: plasma Concentration of K-13-1, PO-2) was 58.8 ng/mL and the concentration at 8 h ([2]; BALB/c, mouse, plasma, po, 8 h, mean, read-out: plasma Concentration of K-13-1, Mean) was 78 ng/mL. The concentration at 24 h ([2]; BALB/c, mouse, plasma, po, 24 h, animal PO-2, read-out: plasma Concentration of K-13-1, PO-2) was 4.65 ng/mL, the concentration at 24 h ([2]; BALB/c, mouse, plasma, po, 24 h, mean, read-out: plasma Concentration of K-13-1, Mean) was 4.65 ng/mL and the half-life ([2]; BALB/c, mouse, plasma, po, 10 mg/kg, BALB/c mice, analyte K-13-1) was 3.5 h. It also gave a Tmax ([2]; BALB/c, mouse, plasma, po, 10 mg/kg, BALB/c mice, analyte K-13-1, read-out: Tmax) of 0.5 h.

In the case of `COc1cc2nccc(Oc3ccc4c(c3)CCCN4C(=O)Nc3cccc(F)c3)c2cc1OC` [K-13-MS-1, N-(3-fluorophenyl)-6-(6,7-dimethoxyquinolin-4-oxy)-3,4-dihydroquinoline-1(2H)-carboxamide methanesulfonate], the “increase of in vivo exposure AUClast versus free base” value ([2]; BALB/c mice) is reported as 2.46 times, the “increase of in vivo exposure Cmax versus free base” value ([2]; BALB/c mice) is reported as 3.14 times and the “plasma Concentration of K-13-1, PO-1” value ([2]; BALB/c mice, 0.083 h, animal PO-1, methanesulfonate) is reported as 431 ng/mL. For the same compound, the “plasma Concentration of K-13-1, PO-2” value ([2]; BALB/c mice, 0.083 h, animal PO-2, methanesulfonate) was 414 ng/mL, the “plasma Concentration of K-13-1, Mean” value ([2]; BALB/c mice, 0.083 h, mean, methanesulfonate) was 423 ng/mL and the “plasma Concentration of K-13-1, PO-1” value ([2]; BALB/c mice, 0.25 h, animal PO-1, methanesulfonate) was 2175 ng/mL. For the same compound, the “plasma Concentration of K-13-1, PO-2” value ([2]; BALB/c mice, 0.25 h, animal PO-2, methanesulfonate) was 2059 ng/mL, the “plasma Concentration of K-13-1, Mean” value ([2]; BALB/c mice, 0.25 h, mean, methanesulfonate) was 2117 ng/mL and the “plasma Concentration of K-13-1, PO-1” value ([2]; BALB/c mice, 0.5 h, animal PO-1, methanesulfonate) was 1868 ng/mL. The “plasma Concentration of K-13-1, PO-2” value ([2]; BALB/c mice, 0.5 h, animal PO-2, methanesulfonate) was 1775 ng/mL, the “plasma Concentration of K-13-1, Mean” value ([2]; BALB/c mice, 0.5 h, mean, methanesulfonate) was 1822 ng/mL and the “plasma Concentration of K-13-1, PO-1” value ([2]; BALB/c mice, 1 h, animal PO-1, methanesulfonate) was 1824 ng/mL. The “plasma Concentration of K-13-1, PO-2” value ([2]; BALB/c mice, 1 h, animal PO-2, methanesulfonate) was 1317 ng/mL, the “plasma Concentration of K-13-1, Mean” value ([2]; BALB/c mice, 1 h, mean, methanesulfonate) was 1571 ng/mL and the “plasma Concentration of K-13-1, PO-1” value ([2]; BALB/c mice, 2 h, animal PO-1, methanesulfonate) was 922 ng/mL. The “plasma Concentration of K-13-1, PO-2” value ([2]; BALB/c mice, 2 h, animal PO-2, methanesulfonate) was 1319 ng/mL, the “plasma Concentration of K-13-1, Mean” value ([2]; BALB/c mice, 2 h, mean, methanesulfonate) was 1121 ng/mL and the “plasma Concentration of K-13-1, PO-1” value ([2]; BALB/c mice, 4 h, animal PO-1, methanesulfonate) was 884 ng/mL. The “plasma Concentration of K-13-1, PO-2” value ([2]; BALB/c mice, 4 h, animal PO-2, methanesulfonate) was 981 ng/mL, the “plasma Concentration of K-13-1, Mean” value ([2]; BALB/c mice, 4 h, mean, methanesulfonate) was 932 ng/mL and the “plasma Concentration of K-13-1, PO-1” value ([2]; BALB/c mice, 8 h, animal PO-1, methanesulfonate) was 130 ng/mL. For the same compound, the “plasma Concentration of K-13-1, PO-2” value ([2]; BALB/c mice, 8 h, animal PO-2, methanesulfonate) was 89.0 ng/mL, the “plasma Concentration of K-13-1, Mean” value ([2]; BALB/c mice, 8 h, mean, methanesulfonate) was 109 ng/mL and the “plasma Concentration of K-13-1, PO-2” value ([2]; BALB/c mice, 24 h, animal PO-2, methanesulfonate) was “BLOQ”. For the same compound, the “plasma Concentration of K-13-1, Mean” value ([2]; BALB/c mice, 24 h, mean, methanesulfonate) was “BLOQ”, the AUC0-inf [2, 10] was 7350 ng·h/mL and the AUC0-t [2, 10] was 7051 ng·h/mL. The Cmax [2, 10] was 2117 ng/mL, the “F (oral bioavailability)” value [2, 10] was 50% and the Kel [2, 10] was 0.364 h⁻¹. The T1/2 [2, 10] was 1.9 h, the Tmax [2, 10] was 0.25 h and the concentration at 0 h ([2]; BALB/c, mouse, plasma, po, animal PO-1, read-out: plasma Concentration of K-13-1, PO-1) was 0 ng/mL. The concentration at 0 h ([2]; BALB/c, mouse, plasma, po, animal PO-2, read-out: plasma Concentration of K-13-1, PO-2) was 0 ng/mL and the concentration at 0 h ([2]; BALB/c, mouse, plasma, po, mean, read-out: plasma Concentration of K-13-1, Mean) was 0 ng/mL.
